# Assay results published in ChEMBL document CHEMBL4354881, “Optimization of Potent ATAD2 and CECR2 Bromodomain Inhibitors with an Atypical Binding Mode” (J Med Chem, 2020).
# pIC50: −log10 of the molar value.
# How the values were obtained:
# [1] = target: Bromodomain-containing protein 4 (Homo sapiens, UniProt O60885, Y390A); assay: Displacement of Alexa Fluor 647-labeled ligand from BRD4 BD1 Y390A mutant (1 to 477 residue) (unknown origin) measured after 30 mins by TR-FRET assay
# [2] = target: Chromatin remodeling regulator CECR2 (Homo sapiens, UniProt Q9BXF3); assay: Displacement of Alexa Fluor 647-labeled GSK tracer from FLAG-6His-Tev-fused CECR2 (424 to 543 residue) (unknown origin) measured after 15 mins by TR-FRET assay
# Sequence of Chromatin remodeling regulator CECR2 (Q9BXF3 whole entry, the tested form may be a part): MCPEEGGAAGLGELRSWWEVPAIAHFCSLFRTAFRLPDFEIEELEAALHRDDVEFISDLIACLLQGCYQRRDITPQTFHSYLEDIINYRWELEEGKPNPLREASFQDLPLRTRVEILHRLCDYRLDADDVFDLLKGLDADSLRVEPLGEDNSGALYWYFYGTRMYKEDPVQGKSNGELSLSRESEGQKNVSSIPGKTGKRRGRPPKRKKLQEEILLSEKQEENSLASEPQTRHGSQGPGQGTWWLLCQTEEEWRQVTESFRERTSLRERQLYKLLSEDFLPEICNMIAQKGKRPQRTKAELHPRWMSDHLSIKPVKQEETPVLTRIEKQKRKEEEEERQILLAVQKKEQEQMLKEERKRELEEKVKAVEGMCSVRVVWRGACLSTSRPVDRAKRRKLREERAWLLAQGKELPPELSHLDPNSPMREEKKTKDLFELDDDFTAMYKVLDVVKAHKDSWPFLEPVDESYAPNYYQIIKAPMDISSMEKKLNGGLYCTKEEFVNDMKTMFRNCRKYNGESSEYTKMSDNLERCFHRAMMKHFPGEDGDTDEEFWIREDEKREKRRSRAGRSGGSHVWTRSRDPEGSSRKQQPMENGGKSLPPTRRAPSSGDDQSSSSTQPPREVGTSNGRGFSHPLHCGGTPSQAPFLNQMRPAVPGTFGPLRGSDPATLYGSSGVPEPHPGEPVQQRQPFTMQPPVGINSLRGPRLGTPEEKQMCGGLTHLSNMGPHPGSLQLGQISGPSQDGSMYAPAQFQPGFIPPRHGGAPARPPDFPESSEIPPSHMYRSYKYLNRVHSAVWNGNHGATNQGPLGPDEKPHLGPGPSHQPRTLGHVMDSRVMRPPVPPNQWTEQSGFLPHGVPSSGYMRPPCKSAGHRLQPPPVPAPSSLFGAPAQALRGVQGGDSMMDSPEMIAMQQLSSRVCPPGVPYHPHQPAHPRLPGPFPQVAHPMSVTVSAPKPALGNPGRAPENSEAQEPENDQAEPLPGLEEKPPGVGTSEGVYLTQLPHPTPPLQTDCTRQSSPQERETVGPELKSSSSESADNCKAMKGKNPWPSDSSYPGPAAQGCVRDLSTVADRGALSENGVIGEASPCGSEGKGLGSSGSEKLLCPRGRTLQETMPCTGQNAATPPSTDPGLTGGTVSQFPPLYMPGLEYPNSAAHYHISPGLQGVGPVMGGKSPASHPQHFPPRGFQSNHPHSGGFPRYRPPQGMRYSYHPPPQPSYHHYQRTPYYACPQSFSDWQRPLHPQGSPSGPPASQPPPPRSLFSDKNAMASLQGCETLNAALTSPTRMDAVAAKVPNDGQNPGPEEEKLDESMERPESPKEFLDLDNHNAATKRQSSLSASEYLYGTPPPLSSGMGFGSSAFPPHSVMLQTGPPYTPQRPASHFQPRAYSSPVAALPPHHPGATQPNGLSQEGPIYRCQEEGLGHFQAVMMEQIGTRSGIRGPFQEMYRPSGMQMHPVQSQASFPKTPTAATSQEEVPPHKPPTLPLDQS
# [3] = target: T1, ATPase family AAA domain-containing protein 2 (Homo sapiens, UniProt Q6PL18); assay: Displacement of Alexa Fluor 488-labeled ligand from FLAG-6His-Tev-fused ATAD2 (981 to 1121 residue) (unknown origin) measured after 30 mins by TR-FRET assay
# T1 sequence (Q6PL18 whole entry): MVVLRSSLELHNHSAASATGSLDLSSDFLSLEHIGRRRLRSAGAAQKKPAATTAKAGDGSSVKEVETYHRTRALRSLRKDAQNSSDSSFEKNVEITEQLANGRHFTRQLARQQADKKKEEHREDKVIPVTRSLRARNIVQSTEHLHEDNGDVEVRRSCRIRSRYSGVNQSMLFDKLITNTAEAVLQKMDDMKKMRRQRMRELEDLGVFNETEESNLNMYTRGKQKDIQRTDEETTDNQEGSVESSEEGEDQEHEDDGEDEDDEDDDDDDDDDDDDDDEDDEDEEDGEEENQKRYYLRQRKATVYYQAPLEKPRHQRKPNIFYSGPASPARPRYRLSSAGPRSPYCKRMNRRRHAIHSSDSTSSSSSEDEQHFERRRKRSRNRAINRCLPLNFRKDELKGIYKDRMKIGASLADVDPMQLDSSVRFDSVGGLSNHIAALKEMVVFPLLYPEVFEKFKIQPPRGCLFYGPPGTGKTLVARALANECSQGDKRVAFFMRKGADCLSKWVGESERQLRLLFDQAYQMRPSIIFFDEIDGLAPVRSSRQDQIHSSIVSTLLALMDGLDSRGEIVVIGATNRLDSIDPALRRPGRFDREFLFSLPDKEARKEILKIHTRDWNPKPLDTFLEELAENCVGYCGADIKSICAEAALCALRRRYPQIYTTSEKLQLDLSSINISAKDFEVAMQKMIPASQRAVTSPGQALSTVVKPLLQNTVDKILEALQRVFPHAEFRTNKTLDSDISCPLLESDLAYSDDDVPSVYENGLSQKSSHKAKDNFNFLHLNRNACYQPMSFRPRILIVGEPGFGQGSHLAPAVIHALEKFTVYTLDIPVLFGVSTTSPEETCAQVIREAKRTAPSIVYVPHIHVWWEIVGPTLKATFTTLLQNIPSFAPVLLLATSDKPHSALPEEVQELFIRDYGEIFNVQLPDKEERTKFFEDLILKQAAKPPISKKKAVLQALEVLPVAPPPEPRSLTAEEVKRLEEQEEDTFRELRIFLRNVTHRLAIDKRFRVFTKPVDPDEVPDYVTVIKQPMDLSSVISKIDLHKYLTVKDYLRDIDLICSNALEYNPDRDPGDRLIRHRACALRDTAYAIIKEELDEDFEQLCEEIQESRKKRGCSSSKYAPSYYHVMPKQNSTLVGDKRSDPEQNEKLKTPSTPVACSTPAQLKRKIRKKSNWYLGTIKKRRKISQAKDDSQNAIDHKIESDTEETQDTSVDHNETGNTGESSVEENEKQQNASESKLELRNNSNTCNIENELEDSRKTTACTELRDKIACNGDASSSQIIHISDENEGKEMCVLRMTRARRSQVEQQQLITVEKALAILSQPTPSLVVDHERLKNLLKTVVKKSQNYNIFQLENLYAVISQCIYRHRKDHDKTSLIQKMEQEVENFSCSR
# [4] = Permeability of the compound by artificial lipid membrane-based method; type: ADME; details: not told; read-out: permeability
Compound,pIC50 [1],pIC50 [2],pIC50 [3],Papp [4] [×10⁻⁶ cm/s]
CC1NC(=O)N(CC(=O)Nc2ccc(Cl)c(S(=O)(=O)N3CCCC3)c2)C1=O (racemic),< 4.30,5.20,5.90,1.2
C[C@H]1CCN(S(=O)(=O)c2cc(NC(=O)Cn3nncc3CN(C)C)ccc2Br)C1,< 4.30,7.10,5.40,–
Cc1nnn(CC(=O)Nc2ccc(Br)c(S(=O)(=O)N3CC[C@H](C)C3)c2)c1C,< 4.30,6.00,5.20,–
CN1CCc2c(nnn2CC(=O)Nc2ccc(Cl)c(S(=O)(=O)N3CC[C@@H](C4CC4)C3)c2)C1,4.40,6.90,5.20,–
CCN1CCc2c(nnn2CC(=O)Nc2ccc(Br)c(S(=O)(=O)N3CC[C@H](C)C3)c2)C1,4.50,7.30,5.60,–
C[C@H]1CCN(S(=O)(=O)c2cc(NC(=O)Cn3cc(CN(C)C)nn3)ccc2Br)C1,< 4.30,6.60,5.90,–
CC1(C)NC(=O)N(CC(=O)Nc2ccc(Cl)c(S(=O)(=O)N3CCCC3)c2)C1=O,< 4.30,5.30,5.80,1.8
CC(C)N1CCc2c(nnn2CC(=O)Nc2ccc(Br)c(S(=O)(=O)N3CC[C@H](C)C3)c2)C1,4.30,7.50,5.70,–
C[C@H]1CCN(S(=O)(=O)c2cc(NC(=O)Cc3noc4ccccc34)ccc2Br)C1,4.60,6.60,6.00,–
C[C@@]1(C2CC2)NC(=O)N(CC(=O)Nc2ccc(Br)c(S(=O)(=O)N3CCCC3)c2)C1=O,< 4.30,6.40,6.60,–
COCc1cnnn1CC(=O)Nc1ccc(Br)c(S(=O)(=O)N2CC[C@H](C)C2)c1,4.30,6.60,6.00,–
CN1CCc2c(nnn2CC(=O)Nc2ccc(Br)c(S(=O)(=O)N3CC[C@@H](C4CC4)C3)c2)C1,4.60,7.40,5.50,–
COCc1cn(CC(=O)Nc2ccc(Br)c(S(=O)(=O)N3CC[C@H](C)C3)c2)nn1,< 4.30,5.80,5.60,–
CC1(C2CC2)NC(=O)N(CC(=O)Nc2ccc(Cl)c(S(=O)(=O)N3CCCC3)c2)C1=O (racemic),< 3.30,5.80,6.00,10
C[C@H]1CCN(S(=O)(=O)c2cc(NC(=O)Cc3coc4ccccc34)ccc2Br)C1,< 4.30,5.10,5.60,–
CCCc1cn(CC(=O)Nc2ccc(Br)c(S(=O)(=O)N3CC[C@H](C)C3)c2)nn1,4.40,5.80,5.80,–

Compound,pIC50 [1],pIC50 [2],pIC50 [3],Papp [4] [×10⁻⁶ cm/s]
C[C@H]1CCN(S(=O)(=O)c2cc(NC(=O)Cn3ccnn3)ccc2Br)C1,< 4.30,5.40,5.40,–
C[C@H]1CCN(S(=O)(=O)c2cc(NC(=O)Cn3nnc4c3CCNC4)ccc2Br)C1,4.80,6.60,5.60,–
O=C(CN1C(=O)CCC1=O)Nc1ccc(Cl)c(S(=O)(=O)N2CCCC2)c1,< 4.30,5.40,5.90,4.2
O=C(CN1CCCC1=O)Nc1ccc(Cl)c(S(=O)(=O)N2CCCC2)c1,< 4.30,4.70,4.30,12
O=C(CN1C(=O)CNC1=O)Nc1ccc(Cl)c(S(=O)(=O)n2ccnc2)c1,< 4.30,< 4.00,< 4.00,–
CC(=O)Nc1ccc(Cl)c(S(=O)(=O)N2CCCC2)c1,3.70,4.10,4.50,27
C[C@H]1CCN(S(=O)(=O)c2cc(NC(=O)Cn3nnc4c3CCN(C)C4)ccc2Br)C1,< 4.30,7.30,5.70,–
CC(=O)N1CCc2c(nnn2CC(=O)Nc2ccc(Br)c(S(=O)(=O)N3CC[C@H](C)C3)c2)C1,< 4.30,7.00,5.80,–
C[C@H]1CCN(S(=O)(=O)c2cc(NC(=O)Cn3c(=O)[nH]c4ccccc43)ccc2Br)C1,< 4.30,6.30,5.90,–
C[C@H]1CCN(S(=O)(=O)c2cc(NC(=O)Cn3nnc4c3CN(C)CC4)ccc2Br)C1,< 4.30,6.60,5.70,–
C[C@H]1CCN(S(=O)(=O)c2cc(NC(=O)Cn3nnc4ccccc43)ccc2Br)C1,4.80,6.70,5.70,–
C[C@@H]1CN(S(=O)(=O)c2cc(NC(=O)CN3C(=O)NC(C)(C4CC4)C3=O)ccc2Br)C[C@H]1C (relative stereo),4.40,6.90,7.60,–
O=C(CN1C(=O)CNC1=O)Nc1ccc(Cl)c(S(=O)(=O)C2CCCCC2)c1,< 4.30,< 4.00,< 4.00,–
C[C@H]1CCN(S(=O)(=O)c2cc(NC(=O)Cn3c(=O)oc4ccccc43)ccc2Br)C1,5.00,7.20,5.70,–
CCCc1cnnn1CC(=O)Nc1ccc(Br)c(S(=O)(=O)N2CC[C@H](C)C2)c1,5.00,7.10,5.50,–
C[C@H]1CCN(S(=O)(=O)c2cc(NC(=O)CN3C(=O)N[C@](C)(C4CC4)C3=O)ccc2Br)C1,< 4.30,6.90,7.00,–

# Next, values leading:
pIC50 [1],pIC50 [2],pIC50 [3],Papp [4] [×10⁻⁶ cm/s],Compound
< 4.30,6.30,6.30,–,O=C(CN1C(=O)CNC1=O)Nc1ccc(Cl)c(S(=O)(=O)N2CCC(C3CC3)C2)c1 (racemic)
< 4.30,4.50,5.60,–,O=C(CN1C(=O)CNC1=O)Nc1ccc(Cl)c(S(=O)(=O)N2CCCCC2)c1
4.50,5.10,5.60,–,CC1CCCN1S(=O)(=O)c1cc(NC(=O)CN2C(=O)CNC2=O)ccc1Cl (racemic)
< 4.30,4.60,5.50,–,CC1(C)CCN(S(=O)(=O)c2cc(NC(=O)CN3C(=O)CNC3=O)ccc2Cl)C1
< 4.30,5.40,6.00,–,O=C(CN1C(=O)CNC1=O)Nc1ccc(Cl)c(S(=O)(=O)N2CCC3(CC3)C2)c1
< 4.30,4.90,5.90,–,O=C(CN1C(=O)CNC1=O)Nc1ccc(Cl)c(S(=O)(=O)N2CCCCCC2)c1
4.70,5.70,6.60,–,C[C@@H]1CN(S(=O)(=O)c2cc(NC(=O)CN3C(=O)CNC3=O)ccc2Cl)C[C@H]1C (racemic)
< 4.30,5.50,6.10,–,C[C@H]1CCN(S(=O)(=O)c2cc(NC(=O)CN3C(=O)CNC3=O)ccc2Cl)C1
< 4.30,5.40,6.00,–,COCC1CCN(S(=O)(=O)c2cc(NC(=O)CN3C(=O)CNC3=O)ccc2Cl)C1 (racemic)
< 4.30,4.70,5.70,–,C[C@@H]1CN(S(=O)(=O)c2cc(NC(=O)CN3C(=O)CNC3=O)ccc2Cl)C[C@@H]1C
< 4.30,5.90,6.20,–,CCC1CCN(S(=O)(=O)c2cc(NC(=O)CN3C(=O)CNC3=O)ccc2Cl)C1 (racemic)
< 4.30,5.30,6.00,–,C[C@@H]1CCN(S(=O)(=O)c2cc(NC(=O)CN3C(=O)CNC3=O)ccc2Cl)C1
< 4.30,5.40,6.00,< 0.3,CN(C)CC1CCN(S(=O)(=O)c2cc(NC(=O)CN3C(=O)CNC3=O)ccc2Cl)C1 (stereo not given)
4.40,4.10,4.90,–,CN(C)S(=O)(=O)c1cc(NC(=O)CN2C(=O)CNC2=O)ccc1Cl
